From US20110294778A1, “HEPATITIS C INHIBITOR COMPOUNDS” (priority 2009, published 2011)

How the values were obtained:
[1] = system: HCV genotype 1b (Con-1) subgenomic replicon with NS3 resistance mutation D168V in Huh-7 cells; test: HCV replicon RNA replication assay (NS3 protease variants), genotype 1b D168V; type: cell-based; settings: Hepatitis C virus, Huh-7, 72 h, read-out: D168V 1b EC50 (nM)
[2] = system: HCV genotype 1a (strain H77) subgenomic replicon with NS3 resistance mutation R155K in Huh-7 cells; test: HCV replicon RNA replication assay (NS3 protease variants), genotype 1a R155K; type: cell-based; settings: Hepatitis C virus, Huh-7, 72 h, read-out: R155K 1a EC50 (nM)

| Structure (SMILES) | EC50 [1] [nM] | EC50 [2] [nM] |
| --- | --- | --- |
| COc1c(F)ccc2c(O[C@@H]3C[C@H]4C(=O)N[C@]5(C(=O)NS(=O)(=O)C6(C)CC6)C[C@H]5/C=C\CCCCC[C@H](NC(=O)N(C)C)C(=O)N4C3)cc(OC(C)C)nc12 [Compound 2002, (2R,6S,12Z,13aS,14aR,16aS)-6-[(dimethylcarbamoyl)amino]-2-{[7-fluoro-8-methoxy-2-(propan-2-yloxy)quinolin-4-yl]oxy}-N-[(1-methylcyclopropyl)sulfonyl]-5,16-dioxo-1,2,3,6,7,8,9,10,11,13a,14,15,16,16a-tetradecahydrocyclopropa[e]pyrrolo[1,2-a][1,4]diazacyclopentadecine-14a(5H)-carboxamide] | 0.41 | 4.7 |
| COc1ccc2c(O[C@@H]3C[C@H]4C(=O)N[C@]5(C(=O)NS(=O)(=O)C6(C)CC6)C[C@H]5/C=C\CCCCC[C@H](NC(=O)N5CC(C)(OC)C5)C(=O)N4C3)cc(OC(C)C)nc2c1C [Compound 2009, (2R,6S,12Z,13aS,14aR,16aS)-6-{[(3-methoxy-3-methylazetidin-1-yl)carbonyl]amino}-2-{[7-methoxy-8-methyl-2-(propan-2-yloxy)quinolin-4-yl]oxy}-N-[(1-methylcyclopropyl)sulfonyl]-5,16-dioxo-1,2,3,6,7,8,9,10,11,13a,14,15,16,16a-tetradecahydrocyclopropa[e]pyrrolo[1,2-a][1,4]diazacyclopentadecine-14a(5H)-carboxamide] | 2.9 | 6.8 |
| COc1ccc2c(O[C@@H]3C[C@H]4C(=O)N[C@]5(C(=O)NS(=O)(=O)C6CC6)C[C@H]5/C=C\CCCCC[C@H](NC(=O)N5CCC5)C(=O)N4C3)cc(OC(C)C)nc2c1C [Compound 2005, (2R,6S,12Z,13aS,14aR,16aS)-6-[(azetidin-1-ylcarbonyl)amino]-N-(cyclopropylsulfonyl)-2-{[7-methoxy-8-methyl-2-(propan-2-yloxy)quinolin-4-yl]oxy}-5,16-dioxo-1,2,3,6,7,8,9,10,11,13a,14,15,16,16a-tetradecahydrocyclopropa[e]pyrrolo[1,2-a][1,4]diazacyclopentadecine-14a(5H)-carboxamide] | 0.82 | 4.8 |
| CCOc1cc(O[C@@H]2C[C@H]3C(=O)N[C@]4(C(=O)NS(=O)(=O)C5CC5)C[C@H]4/C=C\CCCCC[C@H](NC(=O)c4ccn(C)n4)C(=O)N3C2)c2ccc(OC)c(Br)c2n1 [Compound 1017, (2R,6S,12Z,13aS,14aR,16aS)-2-[(8-bromo-2-ethoxy-7-methoxyquinolin-4-yl)oxy]-N-(cyclopropylsulfonyl)-6-{[(1-methyl-1H-pyrazol-3-yl)carbonyl]amino}-5,16-dioxo-1,2,3,6,7,8,9,10,11,13a,14,15,16,16a-tetradecahydrocyclopropa[e]pyrrolo[1,2-a][1,4]diazacyclopentadecine-14a(5H)-carboxamide] | 1.1 | 9.5 |
| CCOc1cc(O[C@@H]2C[C@H]3C(=O)N[C@]4(C(=O)NS(=O)(=O)C5(C)CC5)C[C@H]4/C=C\CCCCC[C@H](NC(=O)c4ccn(CC(F)(F)F)n4)C(=O)N3C2)c2ccc(OC)c(C)c2n1 [Compound 1029, (2R,6S,12Z,13aS,14aR,16aS)-2-[(2-ethoxy-7-methoxy-8-methylquinolin-4-yl)oxy]-N-[(1-methylcyclopropyl)sulfonyl]-5,16-dioxo-6-({[1-(2,2,2-trifluoroethyl)-1H-pyrazol-3-yl]carbonyl}amino)-1,2,3,6,7,8,9,10,11,13a,14,15,16,16a-tetradecahydrocyclopropa[e]pyrrolo[1,2-a][1,4]diazacyclopentadecine-14a(5H)-carboxamide] | 0.37 | 6 |
